According to PubChem BioAssay AID248 (DTP/NCI, 2004):
Where “and” joins values, the source holds several entries; their conditions need not be identical. Equal entries are not always repeated. Toxic doses and inconclusive results are not listed. No stated cut-off is given here; in the data, active means T/C of 150% or more; inactive means T/C below 125%.

System: L1210 leukemia ip in BDF1 mice, survival T/C
Assay: NCI In Vivo Anticancer Drug Screen. Data for tumor model L1210 Leukemia (intraperitoneal) in B6D2F1 (BDF1) mice
Settings: endpoint: mean survival time, higher = longer survival
How it was run: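 Mice bearing the transplanted tumor received compound or vehicle. Survival of the treated group was divided by that of the vehicle-treated control group to give the ratio.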

[1] = dose: 100.0 mg/kg/injection, schedule: Q04DX003 (ip), vehicle: saline
[2] = dose: 200.0 mg/kg/injection, schedule: Q04DX003 (ip), vehicle: saline
[3] = dose: 400.0 mg/kg/injection, schedule: Q04DX003 (ip), vehicle: saline
[4] = dose: 400.0 mg/kg/injection, schedule: Q04DX002 (ip), vehicle: saline with Tween-80
[5] = dose: 100.0 mg/kg/injection, schedule: Q01DX001 (ip), vehicle: saline with Tween-80
[6] = dose: 100.0 mg/kg/injection, schedule: Q01DX009 (ip), vehicle: saline with Tween-80
[7] = dose: 100.0 mg/kg/injection, schedule: Q04DX002 (ip), vehicle: saline with Tween-80
[8] = dose: 100.0 mg/kg/injection, schedule: Q04DX003 (ip), vehicle: saline with Tween-80
[9] = dose: 200.0 mg/kg/injection, schedule: Q01DX001 (ip), vehicle: saline with Tween-80
[10] = dose: 200.0 mg/kg/injection, schedule: Q01DX009 (ip), vehicle: saline with Tween-80
[11] = dose: 200.0 mg/kg/injection, schedule: Q04DX002 (ip), vehicle: saline with Tween-80
[12] = dose: 200.0 mg/kg/injection, schedule: Q04DX003 (ip), vehicle: saline with Tween-80
[13] = dose: 400.0 mg/kg/injection, schedule: Q01DX001 (ip), vehicle: saline with Tween-80
[14] = dose: 400.0 mg/kg/injection, schedule: Q01DX009 (ip), vehicle: saline with Tween-80
[15] = dose: 400.0 mg/kg/injection, schedule: Q04DX003 (ip), vehicle: saline with Tween-80
[16] = dose: 100.0 mg/kg/injection, schedule: Q01DX001 (ip), vehicle: saline
[17] = dose: 200.0 mg/kg/injection, schedule: Q01DX001 (ip), vehicle: saline
[18] = dose: 100.0 mg/kg/injection, schedule: Q01DX009 (ip), vehicle: Klucel (hydroxypropylcellulose) (HPC)
[19] = dose: 100.0 mg/kg/injection, schedule: Q04DX003 (ip), vehicle: Klucel (hydroxypropylcellulose) (HPC)
[20] = dose: 200.0 mg/kg/injection, schedule: Q01DX009 (ip), vehicle: Klucel (hydroxypropylcellulose) (HPC)
[21] = dose: 200.0 mg/kg/injection, schedule: Q04DX003 (ip), vehicle: Klucel (hydroxypropylcellulose) (HPC)
[22] = dose: 400.0 mg/kg/injection, schedule: Q01DX009 (ip), vehicle: Klucel (hydroxypropylcellulose) (HPC)
[23] = dose: 400.0 mg/kg/injection, schedule: Q04DX003 (ip), vehicle: Klucel (hydroxypropylcellulose) (HPC)
[24] = dose: 50.0 mg/kg/injection, schedule: Q01DX001 (ip), vehicle: saline
[25] = dose: 25.0 mg/kg/injection, schedule: Q01DX009 (ip), vehicle: Klucel (hydroxypropylcellulose) (HPC)
[26] = dose: 50.0 mg/kg/injection, schedule: Q01DX009 (ip), vehicle: Klucel (hydroxypropylcellulose) (HPC)
[27] = dose: 100.0 mg/kg/injection, schedule: Q04DX002 (ip), vehicle: Klucel (hydroxypropylcellulose) (HPC)
[28] = dose: 200.0 mg/kg/injection, schedule: Q04DX002 (ip), vehicle: Klucel (hydroxypropylcellulose) (HPC)
[29] = dose: 400.0 mg/kg/injection, schedule: Q04DX002 (ip), vehicle: Klucel (hydroxypropylcellulose) (HPC)
[30] = dose: 12.5 mg/kg/injection, schedule: Q01DX009 (ip), vehicle: Klucel (hydroxypropylcellulose) (HPC)

Measured: T/C

FC1(F)C(F)(F)C(Cl)(Cl)C1(Cl)Cl
inactive: [1] 104 % of control | [2] 96 % of control | [3] 107 % of control

O=C1N2CCOC2=NC1(c1ccccc1)c1ccccc1
inactive: dose: 50.0 mg/kg/injection, schedule: Q01DX009 (ip), vehicle: saline 111 % of control | [1] 94 % of control | [2] 103 % of control

CC(=O)Nc1ccc(N(CCO)CCO)cc1
inactive: dose: 25.6 mg/kg/injection, schedule: Q04DX002 (ip), vehicle: saline with Tween-80 88 % of control | dose: 64.0 mg/kg/injection, schedule: Q04DX002 (ip), vehicle: saline with Tween-80 88 % of control | dose: 160.0 mg/kg/injection, schedule: Q04DX002 (ip), vehicle: saline with Tween-80 88 % of control | [4] 92 % of control

Cc1ccc(Cl)cc1NC(=O)OCCOc1ccccc1
inactive: dose: 50.0 mg/kg/injection, schedule: Q04DX003 (ip), vehicle: saline with Tween-80 104 % of control | [5] 93 % of control | [6] 95 % of control | [7] 112 % of control and 89 % of control | [8] 96 % of control and 91 % of control | [9] 91 % of control | [10] 103 % of control and 90 % of control | [11] 94 % of control | [12] 102 % of control | [13] 98 % of control | [14] 95 % of control and 103 % of control | [4] 94 % of control and 95 % of control | [15] 88 % of control and 92 % of control

NCC(O)C(O)C(O)C(O)CO (stereo unspecified)
inactive: [16] 103 % of control | [17] 95 % of control

CC(C)(C)C(=O)Oc1ccc(C(C)(C)C)cc1
inactive: [18] 101 % of control | [19] 104 % of control | [20] 102 % of control | [21] 98 % of control | [22] 98 % of control | [23] 92 % of control

COc1cc([N+](=O)[O-])ccc1N
inactive: dose: 100.0 mg/kg/injection, schedule: Q01DX009 (ip), vehicle: saline sonified 116 % of control | [8] 105 % of control | dose: 200.0 mg/kg/injection, schedule: Q01DX009 (ip), vehicle: saline sonified 95 % of control | [12] 105 % of control | dose: 400.0 mg/kg/injection, schedule: Q01DX009 (ip), vehicle: saline sonified 104 % of control | [15] 115 % of control

Nc1ccc(N)nc1
inactive: [18] 98 % of control | [19] 95 % of control | [20] 98 % of control | [21] 93 % of control | [22] 94 % of control | [23] 98 % of control

COc1cc(C(=O)N2CCN(Cc3ccccc3)CC2)cc(OC)c1OC
inactive: [19] 93 % of control | [21] 107 % of control | [23] 93 % of control

C[CH2][Sn]([Cl])([Cl])[CH2]C.Oc1ccccc1C=NCCN=Cc1ccccc1O
inactive: dose: 5.0 mg/kg/injection, schedule: Q01DX009 (ip), vehicle: saline with Tween-80 98 % of control | dose: 5.0 mg/kg/injection, schedule: Q04DX003 (ip), vehicle: saline with Tween-80 106 % of control | dose: 10.0 mg/kg/injection, schedule: Q01DX009 (ip), vehicle: saline with Tween-80 97 % of control | dose: 10.0 mg/kg/injection, schedule: Q04DX003 (ip), vehicle: saline with Tween-80 100 % of control | dose: 20.0 mg/kg/injection, schedule: Q04DX003 (ip), vehicle: saline with Tween-80 108 % of control

CP1(=O)CCC(=O)C1 (stereo unspecified)
inactive: [1] 98 % of control | [2] 110 % of control | [3] 104 % of control

CC1(C)CCc2cc(C(=O)O)ccc2O1
inactive: [24] 100 % of control | [16] 100 % of control | [17] 103 % of control | dose: 400.0 mg/kg/injection, schedule: Q01DX001 (ip), vehicle: saline 100 % of control

Nc1cc(OCc2ccccc2)cc(OCc2ccccc2)c1
inactive: dose: 25.0 mg/kg/injection, schedule: Q01DX009 (ip), vehicle: water 89 % of control | dose: 50.0 mg/kg/injection, schedule: Q01DX009 (ip), vehicle: water 97 % of control | dose: 100.0 mg/kg/injection, schedule: Q01DX009 (ip), vehicle: water 93 % of control

CC(=O)OCC(OC(C)=O)C(OC(C)=O)C(/C=C/N=[N+]([O-])c1ccccc1)OC(C)=O (stereo unspecified)
inactive: [24] 100 % of control | [16] 94 % of control | [17] 100 % of control

O=[N+]([O-])C12CCCCC1([N+](=O)[O-])CCCC2 (stereo unspecified)
inactive: [1] 103 % of control | [2] 92 % of control | [3] 108 % of control

COc1ccc(COC(=O)c2cc([N+](=O)[O-])cc([N+](=O)[O-])c2)cc1
inactive: [5] 95 % of control | [9] 100 % of control | [13] 92 % of control

c1ccc2c(c1)NC(OC1CCCCC1)S2 (stereo unspecified)
inactive: [7] 101 % of control | [11] 90 % of control | [4] 90 % of control

C/C(=N/Nc1ccccc1)c1ccccn1
inactive: [19] 98 % of control | [21] 96 % of control | [23] 98 % of control

CCCOC(=O)CSC#N
inactive: dose: 5.0 mg/kg/injection, schedule: Q01DX001 (ip), vehicle: saline 106 % of control | dose: 10.0 mg/kg/injection, schedule: Q01DX001 (ip), vehicle: saline 100 % of control

CC1(C)C2CCC1(C)C(NCc1cc(Cl)cc(Cl)c1O)C2 (stereo unspecified)
inactive: [19] 92 % of control | [21] 103 % of control | [23] 98 % of control

Cc1ccccc1SC(=O)Nc1cccc(Cl)c1Cl
inactive: [25] 112 % of control | [26] 104 % of control | [18] 94 % of control and 103 % of control | [20] 87 % of control

COC(=O)C1C(=O)CC2(C)CCCCC12 (stereo unspecified)
inactive: [27] 97 % of control | [28] 100 % of control | [29] 93 % of control

CC(C)=CCC(CCN1CCOCC1)(C(N)=O)c1cccc2ccccc12 (stereo unspecified)
inactive: dose: 6.25 mg/kg/injection, schedule: Q04DX003 (ip), vehicle: Klucel (hydroxypropylcellulose) (HPC) 104 % of control | [30] 96 % of control | dose: 12.5 mg/kg/injection, schedule: Q04DX003 (ip), vehicle: Klucel (hydroxypropylcellulose) (HPC) 94 % of control | [25] 104 % of control | dose: 25.0 mg/kg/injection, schedule: Q04DX003 (ip), vehicle: Klucel (hydroxypropylcellulose) (HPC) 98 % of control | [26] 90 % of control

CN(Cc1ccccc1)C(=O)NC(C)(C)C
inactive: [27] 121 % of control | [28] 102 % of control | [29] 105 % of control

O=C(Nc1ccc([N+](=O)[O-])cc1)OCC(COc1ccccc1)OC(=O)Nc1ccc([N+](=O)[O-])cc1 (stereo unspecified)
inactive: dose: 100.0 mg/kg/injection, schedule: Q01DX001 (ip), vehicle: other 100 % of control | dose: 200.0 mg/kg/injection, schedule: Q01DX001 (ip), vehicle: other 89 % of control | dose: 400.0 mg/kg/injection, schedule: Q01DX001 (ip), vehicle: other 100 % of control

O=C(ONC1CCC(CC2CCCCC2)CC1)c1ccccc1 (stereo unspecified)
inactive: [26] 102 % of control | [18] 97 % of control | [19] 97 % of control | [21] 89 % of control

O=C(OCCCCCCl)c1ccccc1
inactive: [6] 100 % of control | [8] 106 % of control | [10] 104 % of control | [12] 97 % of control | [14] 98 % of control | [15] 95 % of control

O=S1(=O)C2C=CCC1C(Cl)CC2 (stereo unspecified)
inactive: dose: 12.5 mg/kg/injection, schedule: Q01DX001 (ip), vehicle: Klucel (hydroxypropylcellulose) (HPC) 97 % of control | [30] 92 % of control | dose: 25.0 mg/kg/injection, schedule: Q01DX001 (ip), vehicle: Klucel (hydroxypropylcellulose) (HPC) 95 % of control | [25] 89 % of control | dose: 50.0 mg/kg/injection, schedule: Q01DX001 (ip), vehicle: Klucel (hydroxypropylcellulose) (HPC) 93 % of control

C=C(Cl)CSCC
inactive: [8] 111 % of control
